Data set [1] deals with normal human epithelial cells. The conditions noted are these: earlier work of Applicant (refs 14, 16); cited from earlier work.
The subject of data set [2] is lung fibroblasts isolated from bleomycin-treated mice. As to the kind of experiment: MTT cell viability of lung fibroblasts from saline- or bleomycin-treated mice. It counts as cell-based. Conditions: fibroblasts from bleomycin-treated mice compared to those from saline-treated mice. On the procedure:
FIGS. 7A-7B: (FIG. 7A) Western blots analysis of phospho-MARCKS, phospho-AKT and α-SMA expression in lung fibroblast cells isolated from saline- or bleomycin-treated mice after 48 hours of treatment with control or MPS peptides (100 μM). (FIG. 7B) Effect of MPS peptide on cell viability of lung fibroblasts isolated from saline- (mFb-Saline) or bleomycin-treated (mFb-Bleomycin) mice (n=4; *, p<0.05).
MPS peptide potentially serves as an antifibrotic agent in bleomycin-induced pulmonary fibrosis. Bleomycin remains the standard agent for induction of experimental pulmonary fibrosis in animals^23. Thus, 8-week-old female C57BL/6J mice received saline or bleomycin intratracheally (33 μg in […] of saline) as previously described^23. Lung specimens from bleomycin- or saline-treated mice were collected and subjected to immunofluorescence staining. […] Next, lung fibroblast cells isolated from saline- or bleomycin-treated mice (two mice fibroblast cell lines were gifts from Dr. Sem H. Phan, University of Michigan School of Medicine, MI) were incubated with either 100 μM control or MPS peptide for 48 hours. […] The feasibility of the MPS peptide as an antifibrotic agent in a bleomycin-induced pulmonary fibrosis was tested. […] Saline- and bleomycin-exposed mice then were treated with either PBS or MPS peptide (28 mg/kg) intraperitoneally every other day. […]

For data set [3], the system named is LG704 oncospheres. Put plainly: RNA-seq of LG704 oncospheres. It is filed as cell-based, human. Conditions: 50 μM. On the procedure: These genes were then analyzed with GSEA to determine which functional pathways were most affected by MARCKS. Right, Heat map of cancer-stemness markers associated with MARCKS activity.
Targeting the MARCKS PSD is associated with inhibition of stem-like cell properties. In light of the importance of the PSD in the functionality of MARCKS protein, Applicant designed a 25-mer MPS peptide to mimic the MARCKS phosphorylation site domain (PSD). […] Applicant's initial studies have shown that elevation of phospho-MARCKS in lung cancer spheres acted in parallel with increased stemness markers, such as CD133, Oct3/4, SOX2 and Nanog (data not included). The oncospheres were derived from high MARCKS-expressing lung cancer cell lines (H1975 and CL1-5) and primary lung cancer cells (LG704 and LC3: pleural effusion cells isolated from patients with advanced stage) in non-adherent serum-free culture conditions as described previously^30-32. Flow cytometry confirmed that ˜80% of LG704 oncosphere cells are CD133-positive, a major lung CSCs marker. […] Through a comparison of transcriptome profiling between PBS- and MPS-treated LG704 oncospheres by RNA-seq, Applicant identified a total of 352 coding genes altered by MARCKS inhibition (FIG. 15, left). […] The sphere-forming ability was assessed by counting the number and size of tumor spheres (oncospheres) under a microscope. […]

Data set [4] is described as follows: Kinetic assay: biolayer interferometry binding to biotin-labeled PIP2. Conditions: 24° C., read-out: dissociation constant. The source says: FIGS. 10A-10C: (FIG. 10A) The PIP2-binding motif (SEQ ID NO: 12) on the ? hosphorylation ? ite ? omain (PSD) of MARCKS. FIG. 10A discloses the MH domain as SEQ ID NO: 86). (FIG. 10B) Biolayer interferometry analysis of the binding of the MPS peptide to biotin-labeled PIP2. (FIG. 10C) PIP3 levels in IPF fibroblast cells with PBS or MPS treatment. * p<0.05 versus PBS (n=3).
Real-time binding of the peptide mimicking the phosphorylation site domain of MARCKS (MPS peptide, amino acids 151 to 175 from the wild-type MARCKS protein) to biotin-labeled PIP2 was evaluated using biolayer interferometry (BLI) on an Octet RED96 system (ForteBio) following the manufacturer's instructions. Briefly, the ligand, PIP2 labeled with biotin at the sn-1 position (1000 nM in ddH2O), was immobilized on Super Streptavidin (SSA) biosensors for 10 minutes. A binding assay was performed with the MPS analyte at various concentrations from 0 to 1000 nM in ddH2O. Association and dissociation were monitored for 5 minutes. Assays were performed at 24° C. Data were analyzed using Octet Data Analysis Software 7.0 (ForteBio).
For orientation: BLI is a label-free optical method that tracks binding on a fibre tip over time.

Where no end group is shown, it is not given here.

Consider KKKKKRFSFKKSFKLSGFSFKKNKK [MPS peptide], for which, in data set [1], the “cytotoxic effect on normal human epithelial cells” value was “no cytotoxic effect”. For the same sequence, the Cell viability result in data set [2] was “very effective in decreasing cell viability”. In addition, the “cancer stemness genes (ABCC8, CDH5, PROM1 (CD133), ALDH1L1, FGFR2)” value in data set [3] is on record as “decreased”. In data set [4], the Kd amounted to 17.6 nM.

The values are drawn from patent US20220267390A1, “MPS MODIFIED PEPTIDES AND USE THEREOF” (The Regents of the University of California, priority 2019, published 2022).
